# Test results: PubChem BioAssay (NCI)
#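 Five concentrations, 48 hours, 96-well plates. Abbreviation: GI50, concentration required for 50% inhibition of growth. TGI: total growth inhibition.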
# What was measured:
# Assay in all cases: NCI tumour cell line growth inhibition, 48 h
# [1] = system: M14 melanoma
# [2] = system: ACHN renal
# [3] = system: RXF 393 renal
# [4] = system: HCC-2998 colon
# [5] = system: UACC-62 melanoma
# [6] = system: HOP-62 NSCLC
# [7] = system: SW-620 colon
# [8] = system: SR leukemia
# [9] = system: HCT-116 colon
# [10] = system: K-562 leukemia
# [11] = system: SF-295 CNS
# [12] = system: UACC-257 melanoma
# [13] = system: MALME-3M melanoma
# [14] = system: SK-MEL-5 melanoma
# [15] = system: OVCAR-3 ovarian
# [16] = system: SNB-19 CNS
# [17] = system: A549 NSCLC
# [18] = system: LOX IMVI melanoma
# [19] = system: MDA-MB-435
# [20] = system: OVCAR-8 ovarian
# [21] = system: NCI-H226 lung
# [22] = system: CCRF-CEM leukemia
# [23] = system: COLO 205 colon
# [24] = system: HT29 colon
# [25] = system: DU-145 prostate
# [26] = system: IGROV1 ovarian
# [27] = system: BT-549 breast
# [28] = system: OVCAR-5 ovarian
# [29] = system: SK-OV-3 ovarian
# [30] = system: MDA-MB-231 breast
# [31] = system: SF-268 CNS
# [32] = system: MOLT-4 leukemia
# [33] = system: NCI/ADR-RES ovarian
# [34] = system: HOP-92 NSCLC
# [35] = system: TK-10 renal
# [36] = system: SK-MEL-28 melanoma
# [37] = system: NCI-H23 lung
# [38] = system: HL-60(TB) leukemia
# [39] = system: U251 CNS
# [40] = system: SK-MEL-2 melanoma
# [41] = system: OVCAR-4 ovarian
# [42] = system: SF-539 CNS
# [43] = system: 786-0 renal
# [44] = system: HS 578T breast
# [45] = system: SNB-75 CNS
# [46] = system: SN12C renal
# [47] = system: EKVX NSCLC
# [48] = system: NCI-H522 lung
# [49] = system: HCT-15 colon
# [50] = system: UO-31 renal
# [51] = system: NCI-H460 lung
# [52] = system: MCF7 breast
# [53] = system: A498 renal
# [54] = system: PC-3 prostate
# [55] = system: RPMI-8226 leukemia
# [56] = system: KM12 colon
compound,measurement,setting,value
O=C(Nc1ccc(OCc2nnc(-c3ccc(Cl)cc3)o2)c(F)c1)c1ccc(Cl)c(C(F)(F)F)c1,GI50,[1],> 50 µM
same,TGI,[1],> 50 µM
same,GI50,[2],> 50 µM
same,TGI,[2],> 50 µM
same,GI50,[3],> 50 µM
same,TGI,[3],> 50 µM
same,GI50,[4],> 50 µM
same,TGI,[4],> 50 µM
same,GI50,[5],> 50 µM
same,TGI,[5],> 50 µM
same,GI50,[6],> 50 µM
same,TGI,[6],> 50 µM
same,GI50,[7],> 50 µM
same,TGI,[7],> 50 µM
same,GI50,[8],> 50 µM
same,TGI,[8],> 50 µM
same,GI50,[9],> 50 µM
same,TGI,[9],> 50 µM
same,GI50,[10],> 50 µM
same,TGI,[10],> 50 µM
same,GI50,[11],> 50 µM
same,TGI,[11],> 50 µM
same,GI50,[12],> 50 µM
same,TGI,[12],> 50 µM
same,GI50,[13],> 50 µM
same,TGI,[13],> 50 µM
same,GI50,[14],> 50 µM
same,TGI,[14],> 50 µM
same,GI50,[15],> 50 µM
same,TGI,[15],> 50 µM
same,GI50,[16],> 50 µM
same,TGI,[16],> 50 µM
same,GI50,[17],> 50 µM
same,TGI,[17],> 50 µM
same,GI50,[18],> 50 µM
same,TGI,[18],> 50 µM
same,GI50,[19],> 50 µM
same,TGI,[19],> 50 µM
same,GI50,[20],> 50 µM
same,TGI,[20],> 50 µM
same,GI50,[21],> 50 µM
same,TGI,[21],> 50 µM
same,GI50,[22],> 50 µM
same,TGI,[22],> 50 µM
same,GI50,[23],> 50 µM
same,TGI,[23],> 50 µM
same,GI50,[24],> 50 µM
same,TGI,[24],> 50 µM
same,GI50,[25],> 50 µM
same,TGI,[25],> 50 µM
same,GI50,[26],> 50 µM
same,TGI,[26],> 50 µM
same,GI50,[27],> 50 µM
same,TGI,[27],> 50 µM
same,GI50,[28],> 50 µM
same,TGI,[28],> 50 µM
same,GI50,[29],> 50 µM
same,TGI,[29],> 50 µM
same,GI50,[30],> 50 µM
same,TGI,[30],> 50 µM
same,GI50,[31],> 50 µM
same,TGI,[31],> 50 µM
same,GI50,[32],> 50 µM
same,TGI,[32],> 50 µM
same,GI50,[33],> 50 µM
same,TGI,[33],> 50 µM
same,GI50,[34],> 50 µM
same,TGI,[34],> 50 µM
same,GI50,[35],> 50 µM
same,TGI,[35],> 50 µM
same,GI50,[36],> 50 µM
same,TGI,[36],> 50 µM
same,GI50,[37],> 50 µM
same,TGI,[37],> 50 µM
same,GI50,[38],> 50 µM
same,TGI,[38],> 50 µM
same,GI50,[39],> 50 µM
same,TGI,[39],> 50 µM
same,GI50,[40],> 50 µM
same,TGI,[40],> 50 µM
same,GI50,[41],> 50 µM
same,TGI,[41],> 50 µM
same,GI50,[42],> 50 µM
same,TGI,[42],> 50 µM
same,GI50,[43],> 50 µM
same,TGI,[43],> 50 µM
same,GI50,[44],> 50 µM
same,TGI,[44],> 50 µM
same,GI50,[45],> 50 µM
same,TGI,[45],> 50 µM
same,GI50,[46],> 50 µM
same,TGI,[46],> 50 µM
COC(=O)[C@@H](C)C[C@H](Cc1ccc2ccccc2c1)NC(=O)c1csc([C@@H](C[C@H](C(C)C)N(C)C(=O)[C@@H](NC(=O)[C@H]2CCCCN2C)C(C)C)OC(C)=O)n1,GI50,[1],0.0129 µM
same,TGI,[1],4.29 µM
same,GI50,[2],0.164 µM
same,TGI,[2],4.59 µM
same,GI50,[47],0.0418 µM
same,TGI,[47],> 25 µM
same,GI50,[4],0.0529 µM
same,TGI,[4],21.6 µM
same,GI50,[48],0.00561 µM
same,TGI,[48],6.03 µM
same,GI50,[5],0.00995 µM
same,TGI,[5],7.78 µM
same,GI50,[6],0.0221 µM
same,TGI,[6],> 25 µM
same,GI50,[49],0.0522 µM
same,TGI,[49],> 25 µM
same,GI50,[7],0.0147 µM
same,TGI,[7],> 25 µM
same,GI50,[8],0.0025 µM
same,TGI,[8],3.57 µM
same,GI50,[9],0.00865 µM
same,TGI,[9],13 µM
same,GI50,[10],0.00706 µM
same,TGI,[10],8.76 µM
same,GI50,[11],0.0107 µM
same,TGI,[11],> 25 µM
same,GI50,[12],4.13 µM
same,TGI,[12],9.42 µM
same,GI50,[14],0.0122 µM
same,TGI,[14],1.42 µM
same,GI50,[50],0.286 µM
same,TGI,[50],5.18 µM
same,GI50,[16],0.0153 µM
same,TGI,[16],> 25 µM
same,GI50,[18],0.013 µM
same,TGI,[18],4.78 µM
same,GI50,[51],0.0118 µM
same,TGI,[51],> 25 µM
same,GI50,[20],0.0445 µM
same,TGI,[20],> 25 µM
same,GI50,[21],7.11 µM
same,TGI,[21],> 25 µM
same,GI50,[22],0.0103 µM
same,TGI,[22],> 25 µM
same,GI50,[23],0.016 µM
same,TGI,[23],0.282 µM
same,GI50,[24],0.00829 µM
same,TGI,[24],4.52 µM
same,GI50,[25],0.00984 µM
same,TGI,[25],> 25 µM
same,GI50,[26],0.0183 µM
same,TGI,[26],> 25 µM
same,GI50,[27],0.013 µM
same,TGI,[27],0.374 µM
same,GI50,[28],0.0629 µM
same,TGI,[28],> 25 µM
same,GI50,[29],0.048 µM
same,TGI,[29],> 25 µM
same,GI50,[30],0.0206 µM
same,TGI,[30],7.17 µM
same,GI50,[31],0.021 µM
same,TGI,[31],> 25 µM
same,GI50,[32],0.0115 µM
same,TGI,[32],7.54 µM
same,GI50,[33],0.614 µM
same,TGI,[33],> 25 µM
same,GI50,[35],8.8 µM
same,TGI,[35],> 25 µM
same,GI50,[36],2.7 µM
same,TGI,[36],6.6 µM
same,GI50,[37],0.0281 µM
same,TGI,[37],> 25 µM
same,GI50,[39],0.0128 µM
same,TGI,[39],10.7 µM
same,GI50,[41],0.129 µM
same,TGI,[41],> 25 µM
same,GI50,[43],0.00994 µM
same,TGI,[43],5.08 µM
same,GI50,[52],0.00699 µM
same,TGI,[52],9.21 µM
same,GI50,[53],0.0745 µM
same,TGI,[53],> 25 µM
same,GI50,[54],0.0106 µM
same,TGI,[54],7.77 µM
same,GI50,[44],0.0122 µM
same,TGI,[44],> 25 µM
same,GI50,[45],0.00524 µM
same,TGI,[45],> 25 µM
same,GI50,[55],0.00932 µM
same,TGI,[55],5.99 µM
same,GI50,[56],0.011 µM
same,TGI,[56],> 25 µM
same,GI50,[46],0.047 µM
same,TGI,[46],> 25 µM
